Test results: US8859768B2, “Heteroaryls and uses thereof” (Millennium Pharmaceuticals, Inc., priority 2010, dated 2014)

What follows are molecules tested against T1, Human VPS34 (Homo sapiens, UniProt Q8NEB9) (assay: Human VPS34 Enzyme Assay (Adapta TR-FRET)). Conditions: compound at 1.111 μM; read-out: Average VPS34 % INH @ 1.111 μM.
T1 construct: GST (N); host or cells: SF9 insect cells (baculovirus)
Format: biochemical
Protocol: VPS34 (accession number GB:BC033004) was cloned into pDEST20-Thombin as N-terminal GST tagged fusion proteins using the Gateway system (Invitrogen, catalog#11804-013). The sequences were verified before recombinant protein expression using the Baculovirus Expression System with Gateway® Technology.
For expression VPS34 was infected at 1MOI in SF9 cells and harvested 72 hours post infection.
For purification, VPS34 is purified by Glutathione Sepharose 4 Fast Flow (GE Healthcare #17-5132-03) followed by HiTrap Q (GE Healthcare #17-1153-01).
Human VPS34 Enzyme Assay Method
100 nL compounds in DMSO are added to wells of a 384 well microtitre plate (Greiner 780076). At room temperature: 5 ul VPS34 reaction buffer (Invitrogen Assay Buffer Q (diluted 1 in 5 with nanopure water) plus 2 mM DTT and 2 mM MnCl2) containing ATP (20 uM, Promega) and 200 uM PI-PS substrate (Invitrogen PV5122) is added followed immediately by 5 ul VPS34 reaction buffer (as above) containing VPS34 (5 nM, Millennium Protein Sciences Group) and the mixture is incubated with shaking at room temperature for 1 hour. Then 5 ul VPS34 stop-detect mix (as per Invitrogen Adapta Assay kit (PV5009) instructions (contains kinase quench buffer, TR-FRET buffer, Adapta Eu anti-ADP antibody and Alexa Fluor 647 ADP tracer)) is added to quench the reaction. The plates are then incubated for 30 minutes at room temperature with shaking and then read on a BMG PheraStar Plus reader.
3) VPS34 is assayed using Adapta™ Universal Kinase Assay Kit (Invitrogen).

T1 sequence (Q8NEB9 whole entry): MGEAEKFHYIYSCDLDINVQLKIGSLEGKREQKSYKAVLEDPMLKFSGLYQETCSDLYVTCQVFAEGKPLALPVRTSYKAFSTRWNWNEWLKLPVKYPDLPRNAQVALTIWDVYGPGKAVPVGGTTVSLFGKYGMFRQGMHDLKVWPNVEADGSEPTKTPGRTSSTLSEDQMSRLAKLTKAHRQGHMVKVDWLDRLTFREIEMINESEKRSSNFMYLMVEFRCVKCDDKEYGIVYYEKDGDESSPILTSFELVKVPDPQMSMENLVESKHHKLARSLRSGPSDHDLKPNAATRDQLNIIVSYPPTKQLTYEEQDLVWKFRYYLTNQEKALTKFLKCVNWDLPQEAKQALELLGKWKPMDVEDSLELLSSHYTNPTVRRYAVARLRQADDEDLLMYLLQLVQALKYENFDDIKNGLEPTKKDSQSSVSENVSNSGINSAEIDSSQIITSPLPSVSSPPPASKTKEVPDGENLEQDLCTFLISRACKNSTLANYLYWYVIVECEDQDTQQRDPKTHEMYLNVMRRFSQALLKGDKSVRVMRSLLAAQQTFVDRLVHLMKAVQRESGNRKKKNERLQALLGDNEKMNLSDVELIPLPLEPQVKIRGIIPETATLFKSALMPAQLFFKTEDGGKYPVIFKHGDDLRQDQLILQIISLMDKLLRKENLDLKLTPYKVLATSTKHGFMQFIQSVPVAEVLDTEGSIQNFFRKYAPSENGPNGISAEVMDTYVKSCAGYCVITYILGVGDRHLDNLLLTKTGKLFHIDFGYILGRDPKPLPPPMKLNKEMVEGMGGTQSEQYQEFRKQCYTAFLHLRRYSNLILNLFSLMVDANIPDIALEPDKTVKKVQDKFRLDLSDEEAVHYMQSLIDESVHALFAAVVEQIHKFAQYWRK

First: CC(=O)Nc1cc(-c2nc(C(=O)Nc3cnccn3)c(-c3ccccc3Cl)o2)c(C)cn1 [Compound I-31, 2-(2-acetamido-5-methylpyridin-4-yl)-5-(2-chlorophenyl)-N-(pyrazin-2-yl)-1,3-oxazole-4-carboxamide]
Second: CC(=O)Nc1cc(-c2nc(C(=O)NCc3cccnc3)c(-c3ccccc3Cl)o2)c(C)cn1 [Compound I-47, 2-(2-acetamido-5-methylpyridin-4-yl)-5-(2-chlorophenyl)-N-(pyridin-3-ylmethyl)-1,3-oxazole-4-carboxamide]
The inhibition at 1.111 µM of the first is higher: 56% for the first, 31% for the second.

First: Nc1cc(-c2nc(-c3nnc[nH]3)c(-c3ccccc3Cl)o2)ccn1 [Compound I-32, 4-[5-(2-chlorophenyl)-4-(4H-1,2,4-triazol-3-yl)-1,3-oxazol-2-yl]pyridin-2-amine]
Second: Clc1ccccc1-c1oc(-c2ccncc2)nc1-c1nnc[nH]1 [Compound I-49, 4-[5-(2-chlorophenyl)-4-(4H-1,2,4-triazol-3-yl)-1,3-oxazol-2-yl]pyridine]
The inhibition at 1.111 µM of the first is higher: 26% for the first, 19% for the second.

Going from CC(=O)Nc1cc(-c2nc(-c3ccccc3Cl)c(-c3ncco3)o2)c(C)cn1 [Compound I-33, N-{4-[4′-(2-chlorophenyl)-2,5′-bi-1,3-oxazol-2′-yl]-5-methylpyridin-2-yl}acetamide] to CC(=O)Nc1cc(-c2nc(-c3ccccc3Cl)c(-c3cc[nH]n3)o2)c(C)cn1 [Compound I-57, N-{4-[4-(2-chlorophenyl)-5-(1H-pyrazol-3-yl)-1,3-oxazol-2-yl]-5-methylpyridin-2-yl}acetamide], the inhibition at 1.111 µM rises from 102% to 135%.

Going from CC(=O)Nc1cc(-c2cc(C(=O)NCCOCCO)c(-c3ccccc3Cl)o2)c(C)cn1 [Compound I-34, 5-(2-acetamido-5-methylpyridin-4-yl)-2-(2-chlorophenyl)-N-[2-(2-hydroxyethoxy)ethyl]-3-furamide] to CNC(=O)c1cc(-c2cc(NC(C)=O)ncc2C)oc1-c1ccccc1Cl [Compound I-54, 5-(2-acetamido-5-methylpyridin-4-yl)-2-(2-chlorophenyl)-N-methyl-3-furamide], the inhibition at 1.111 µM rises from 128% to 152%.

First: COC(=O)Nc1cc(-c2nc(-c3nnc[nH]3)c(-c3ccccc3Cl)o2)c(C)cn1 [Compound I-35, methyl {4-[5-(2-chlorophenyl)-4-(4H-1,2,4-triazol-3-yl)-1,3-oxazol-2-yl]-5-methylpyridin-2-yl}carbamate]
Second: CC(=O)Nc1cc(-c2nc(-c3ccccc3Cl)c(-c3nnc[nH]3)o2)c(C)cn1 [Compound I-39, N-{4-[4-(2-chlorophenyl)-5-(4H-1,2,4-triazol-3-yl)-1,3-oxazol-2-yl]-5-methylpyridin-2-yl}acetamide]
The inhibition at 1.111 µM of the first is lower: 117% for the first, 125% for the second.

First: CC(=O)Nc1cc(-c2cc(-c3nnc[nH]3)c(-c3cc(CN4CCCC4)ccc3Cl)o2)c(C)cn1 [Compound I-36, N-(4-{5-[2-chloro-5-(pyrrolidin-1-ylmethyl)phenyl]-4-(4H-1,2,4-triazol-3-yl)-2-furyl}-5-methylpyridin-2-yl)acetamide]
Second: CC(=O)Nc1cc(-c2nc(-c3cc(CN4CCCC4)ccc3Cl)c(C(=O)O)o2)c(C)cn1 [Compound I-51, 2-(2-acetamido-5-methylpyridin-4-yl)-4-[2-chloro-5-(pyrrolidin-1-ylmethyl)phenyl]-1,3-oxazole-5-carboxylic acid]
The inhibition at 1.111 µM of the first is lower: 129% for the first, 131% for the second.

First: O=C(Cn1cccn1)Nc1cc(-c2nc(-c3nnc[nH]3)c(-c3ccccc3Cl)o2)ccn1 [Compound I-37, N-{4-[5-(2-chlorophenyl)-4-(4H-1,2,4-triazol-3-yl)-1,3-oxazol-2-yl]pyridin-2-yl}-2-(1H-pyrazol-1-yl)acetamide]
Second: C=CCCC(=O)Nc1cc(-c2nc(-c3nnc[nH]3)c(-c3ccccc3Cl)o2)ccn1 [Compound I-43, N-{4-[5-(2-chlorophenyl)-4-(4H-1,2,4-triazol-3-yl)-1,3-oxazol-2-yl]pyridin-2-yl}pent-4-enamide]
The inhibition at 1.111 µM of the first is higher: 117% for the first, 98% for the second.

First: CC(=O)Nc1cc(-c2nc(C(=O)NCc3cccs3)c(-c3ccccc3Cl)o2)c(C)cn1 [Compound I-38, 2-(2-acetamido-5-methylpyridin-4-yl)-5-(2-chlorophenyl)-N-(2-thienylmethyl)-1,3-oxazole-4-carboxamide]
Second: CC(=O)Nc1cc(-c2cc(C(=O)NCc3cccs3)c(-c3ccccc3Cl)o2)c(C)cn1 [Compound I-42, 5-(2-acetamido-5-methylpyridin-4-yl)-2-(2-chlorophenyl)-N-(2-thienylmethyl)-3-furamide]
The inhibition at 1.111 µM of the first is lower: 43% for the first, 117% for the second.

Compared with CC(=O)Nc1cc(-c2nc(-c3cc(CN(C)C)ccc3Cl)c(-c3nnc[nH]3)o2)c(C)cn1 [Compound I-40, N-{4-[4-{2-chloro-5-[(dimethylamino)methyl]phenyl}-5-(4H-1,2,4-triazol-3-yl)-1,3-oxazol-2-yl]-5-methylpyridin-2-yl}acetamide], CC(=O)Nc1cc(-c2nc(-c3nccs3)c(-c3ccccc3Cl)o2)c(C)cn1 [Compound I-60, N-{4-[5-(2-chlorophenyl)-4-(1,3-thiazol-2-yl)-1,3-oxazol-2-yl]-5-methylpyridin-2-yl}acetamide] is higher in inhibition at 1.111 µM: 115% for the first, 122% for the second.

Going from CC(=O)Nc1cc(-c2cc(C(=O)NCCc3cn4ccccc4n3)c(-c3ccccc3Cl)o2)c(C)cn1 [Compound I-41, 5-(2-acetamido-5-methylpyridin-4-yl)-2-(2-chlorophenyl)-N-[2-(imidazo[1,2-a]pyridin-2-yl)ethyl]-3-furamide] to CC(=O)Nc1cc(-c2cc(C(=O)NCc3ccccn3)c(-c3ccccc3Cl)o2)c(C)cn1 [Compound I-44, 5-(2-acetamido-5-methylpyridin-4-yl)-2-(2-chlorophenyl)-N-(pyridin-2-ylmethyl)-3-furamide], the inhibition at 1.111 µM rises from 90% to 150%.

Going from COCCC(=O)Nc1cc(-c2nc(-c3nnc[nH]3)c(-c3ccccc3Cl)o2)ccn1 [Compound I-45, N-{4-[5-(2-chlorophenyl)-4-(4H-1,2,4-triazol-3-yl)-1,3-oxazol-2-yl]pyridin-2-yl}-3-methoxypropanamide] to O=C(Cc1ccc(O)cc1)Nc1cc(-c2nc(-c3nnc[nH]3)c(-c3ccccc3Cl)o2)ccn1 [Compound I-58, N-{4-[5-(2-chlorophenyl)-4-(4H-1,2,4-triazol-3-yl)-1,3-oxazol-2-yl]pyridin-2-yl}-2-(4-hydroxyphenyl)acetamide], the inhibition at 1.111 µM falls from 104% to 94%.

First: CON(C)C(=O)c1cc(-c2cc(NC(C)=O)ncc2C)oc1-c1ccccc1Cl [Compound I-46, 5-(2-acetamido-5-methylpyridin-4-yl)-2-(2-chlorophenyl)-N-methoxy-N-methyl-3-furamide]
Second: CC(=O)Nc1cc(-c2cc(C(=O)N(C)C)c(-c3ccccc3Cl)o2)c(C)cn1 [Compound I-61, 5-(2-acetamido-5-methylpyridin-4-yl)-2-(2-chlorophenyl)-N,N-dimethyl-3-furamide]
The inhibition at 1.111 µM of the first is lower: 89% for the first, 96% for the second.

Compared with CC(=O)Nc1cc(-c2cc(-c3cc[nH]n3)c(-c3ccccc3Cl)o2)c(C)cn1 [Compound I-48, N-{4-[5-(2-chlorophenyl)-4-(1H-pyrazol-3-yl)-2-furyl]-5-methylpyridin-2-yl}acetamide], CC(=O)Nc1cc(-c2cc(C(=O)O)c(-c3ccccc3Cl)o2)c(C)cn1 [Compound I-56, 5-(2-acetamido-5-methylpyridin-4-yl)-2-(2-chlorophenyl)-3-furoic acid] is higher in inhibition at 1.111 µM: 130% for the first, 139% for the second.

Compared with CC(=O)Nc1cc(-c2nc(N3CCCS3(=O)=O)c(-c3nnc[nH]3)o2)c(C)cn1 [Compound I-50, N-{4-[4-(1,1-dioxidoisothiazolidin-2-yl)-5-(4H-1,2,4-triazol-3-yl)-1,3-oxazol-2-yl]-5-methylpyridin-2-yl}acetamide], CNC(=O)c1nc(-c2cc(NC(C)=O)ncc2C)oc1-c1ccccc1Cl [Compound I-52, 2-(2-acetamido-5-methylpyridin-4-yl)-5-(2-chlorophenyl)-N-methyl-1,3-oxazole-4-carboxamide] is higher in inhibition at 1.111 µM: 115% for the first, 117% for the second.

Compared with CC(=O)Nc1cc(-c2cc(C(=O)NCc3ccccc3)c(-c3ccccc3Cl)o2)c(C)cn1 [Compound I-53, 5-(2-acetamido-5-methylpyridin-4-yl)-N-benzyl-2-(2-chlorophenyl)-3-furamide], CC(=O)Nc1cc(-c2nc(C(=O)NCc3ccccc3)c(-c3ccccc3Cl)o2)c(C)cn1 [Compound I-55, 2-(2-acetamido-5-methylpyridin-4-yl)-N-benzyl-5-(2-chlorophenyl)-1,3-oxazole-4-carboxamide] is lower in inhibition at 1.111 µM: 104% for the first, 20% for the second.

Compared with CCNC(=O)c1nc(-c2cc(NC(C)=O)ncc2C)oc1-c1ccccc1Cl [Compound I-59, 2-(2-acetamido-5-methylpyridin-4-yl)-5-(2-chlorophenyl)-N-ethyl-1,3-oxazole-4-carboxamide], CC(=O)Nc1cc(-c2nc(C(=O)NCCCn3ccnc3)c(-c3ccccc3Cl)o2)c(C)cn1 [Compound I-63, 2-(2-acetamido-5-methylpyridin-4-yl)-5-(2-chlorophenyl)-N-[3-(1H-imidazol-1-yl)propyl]-1,3-oxazole-4-carboxamide] is lower in inhibition at 1.111 µM: 101% for the first, 14% for the second.
